System: cultivated fibroblast derived from a Fabry disease model mouse
Assay: Simultaneous addition of α-NAGA mutant and DGJ to cultivated fibroblast derived from Fabry disease model mouse
Format: cell-based
Details: 1 μg/mL α-NAGA mutant plus 0-500 μM DGJ, 24 hours; FIG. 5
Procedure: A cultivated fibroblast derived from a Fabry disease model mouse was cultured at 37° C. under a 5% carbon dioxide environment with use of a DMEM medium to which a 10% fetal calf serum and an antibiotic substance had been added. First, concentration dependence of DGJ with respect to uptake efficiency of an α-NAGA mutant was analyzed. The cells were seeded to a 12-well plate at 1.0×10^5 cells/well. The medium was exchanged with an F-10 medium that contained 1 μg/mL of an α-NAGA mutant, any of concentrations (0, 1, 10, 100, and 500 μM) of DGJ, a 10% fetal calf serum, and an antibiotic substance, and cultivation was carried out for 24 hours. […] The homogenate thus obtained was subjected to centrifugal separation under conditions of 4° C. and 12,000 rpm, and the obtained supernatant liquid was used as samples for enzyme activity measurement, protein quantification, and Western blotting. […] Then, released 4-methylumbelliferone was measured at an excitation wavelength of 355 nm and at a fluorescence wavelength of 460 nm with use of Wallac 1420 ARVO MX Multilabel Counter (Perkin Elmer, Waltham, Mass.). Protein quantification was carried out with Micro BCA method (Micro BCA (trademark) Protein Assay Reagent Kit: Pierce) while using a concentration of bovine serum albumin (Albumin standard: Pierce Biotechnology, Inc., Rockford, Ill.) as a standard. […]

OCC1NCC(O)C(O)C1O [DGJ, (2R,3S,4R,5S)-2-(hydroxymethyl)piperdine-3,4,5-triol]
α-NAGA mutant enzyme activity in cells: enzyme activity was improved
